This passage reports relative viability results from the supplement of paper PMC10307832.

Holding throughout (assay): relative viability (nuclei count vs DMSO), 5 days (fraction); higher = more cells survive
Compound in the experiment “MK-8033 + Luminespib”: Cn1cc(-c2cnc3ccc4ccc(CS(=O)(=O)NCc5ccccn5)cc4c(=O)c3c2)cn1 [MK-8033] + CCNC(=O)c1noc(-c2cc(C(C)C)c(O)cc2O)c1-c1ccc(CN2CCOCC2)cc1 [Luminespib] (partner 0.01 µM)
In a few lines:
(§1)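 After 5 days of treatment, lung cancer cells in 1536-well plates were fixed and stained in a single step (final 0.05% Triton X-100, 1% formaldehyde, 1 ug/ml Hoechst) and their nuclei counted on 4× images. Treatment had been applied by pin tool the day after seeding as one drug alone or as a fixed anchor-drug dose with five library-drug doses (not always all listed) in √10 steps. Relative viability is the nuclei count of treated wells divided by that of vehicle wells, and values are medians of duplicate plates.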

Compound in the experiment “Irinotecan + Vorinostat”: CCc1c2c(nc3ccc(OC(=O)N4CCC(N5CCCCC5)CC4)cc13)-c1cc3c(c(=O)n1C2)COC(=O)[C@]3(O)CC [Irinotecan] + O=C(CCCCCCC(=O)Nc1ccccc1)NO [Vorinostat] (partner 1 µM)
The essentials: as §1

Compound in the experiment “RU-SKI 43 + Lapatinib”: CC[C@@H](C)CNCC(=O)N1CCC2=C([C@@H]1COC3=CC=CC(=C3)C)C=CS2 [RU-SKI 43] + CS(=O)(=O)CCNCc1ccc(-c2ccc3ncnc(Nc4ccc(OCc5cccc(F)c5)c(Cl)c4)c3c2)o1 [Lapatinib] (partner 2 µM)
The essentials:
as §1

Compound in the experiment “MK-8033 + Crizotinib”: Cn1cc(-c2cnc3ccc4ccc(CS(=O)(=O)NCc5ccccn5)cc4c(=O)c3c2)cn1 [MK-8033] + C[C@@H](Oc1cc(-c2cnn(C3CCNCC3)c2)cnc1N)c1c(Cl)ccc(F)c1Cl [Crizotinib] (partner 1 µM)
In a few lines:
as §1

As for UMC-11, the relative viability came to 1.03 with MK-8033 + Luminespib (first compound 0.02 µM); 0.935 in the experiment with MK-8033 + Luminespib (first compound 0.06325 µM); 1.03 in the experiment with MK-8033 + Luminespib (first compound 0.2 µM); 0.988 with MK-8033 + Luminespib (first compound 2 µM); 0.262 with Irinotecan + Vorinostat (first compound 0.6325 µM); 0.343 with Irinotecan + Vorinostat (first compound 2 µM). Also, the relative viability with Irinotecan + Vorinostat (first compound 6.325 µM) worked out at 0.235; in the experiment with Irinotecan + Vorinostat (first compound 20 µM), 0.206; with RU-SKI 43 + Lapatinib (first compound 0.1 µM), 1.05; in the experiment with RU-SKI 43 + Lapatinib (first compound 0.3162 µM), 1.01; in the experiment with RU-SKI 43 + Lapatinib (first compound 1 µM) it was 1.48; in the experiment with RU-SKI 43 + Lapatinib (first compound 3.162 µM), 0.918. Moreover, the relative viability is 0.764 with RU-SKI 43 + Lapatinib (first compound 10 µM); 0.737 with MK-8033 + Crizotinib (first compound 0.02 µM); 0.459 in the experiment with MK-8033 + Crizotinib (first compound 0.06325 µM); 0.734 with MK-8033 + Crizotinib (first compound 0.2 µM); 0.678 with MK-8033 + Crizotinib (first compound 0.6325 µM); 0.697 with MK-8033 + Crizotinib (first compound 2 µM).
